From patent US20240124470A1, “FIVE-MEMBERED RING DERIVATIVE AND MEDICAL USE THEREOF” (SICHUAN HAISCO PHARMACEUTICAL CO., LTD., priority 2020, published 2024) come the findings set out here.

Series [1] concerns the target T1, GLP-1 receptor (Homo sapiens, UniProt P43220).
T1 construct: expressed in transfected cells
Description: HEK293/CRE-luc/GLP-1R cell luciferase reporter test (agonistic effect on GLP-1 receptor). Format: cell-based. The following applies: HEK293/CRE-luc/GLP-1R cells. The procedure: 1. HEK293/CRE-luc/GLP-1β cell viability
Cell: HEK293/CRE-luc/GLP-1R
Cell culture medium: DMEM+10% FBS+400 μg/ml G418+100 μg/ml Hygromycin B
Frozen stock solution: 90% FBS, 10% (V/V) DMSO
Detection buffer: DMEM+1% FBS
Cells were cultured in DMEM medium+10% FBS+400 μg/ml G418+100 μg/ml Hygromycin B in a CO2 incubator at 37° C., and passaged once every 3-4 days.
Cell plating: Trypsinization adjusted the cell density to 1.67×10^5 cells/mL; 60 μL of cells per well (10000 cells/well) was inoculated in a 384-well plate containing compounds; A NC well (negative control) and a background well (no cells) were set. Incubation was performed for about 18+2 h in the incubator.
Compounds were serially diluted with the detection buffer, and the detection concentration was 0.01 nM-1000 nM.
The cell culture plate was removed and all supernatant was aspirated from the cells. The cells were washed gently 2 times with 1×PBS.
The diluted compound was added to a 384-well plate (10 μL/well), and three replicate wells were set for each concentration. 10 μL of the detection buffer was added to the NC well, sealed and incubated at 37° C. for 6 hours.
The plate was removed, the cells were allowed to equilibrate to room temperature (at least 15 min), and then all supernatant was aspirated from the cells.
Steady-Glo® Reagent was added to the sample well at 10 μL/well and incubated at room temperature for 5 min to lyse the cells.
The test results were read with a BMG microplate reader.
The mean background value was calculated.
The induction factor (Fold of induction, FI)=(induction well value−background value)/(negative control well value −background value) was calculated.
The EC50 value of the sample was calculated using Graphpad Prim 8.0 software using four-parameter fitting analysis.
Mean and standard error (Mean±SEM) were calculated for all results and Graphpad Prism software was used for statistical analysis. Specific data were presented in the form of graphs. P<0.05 was considered to be statistically different.
(In general: A reporter such as luciferase makes a cellular process visible.)

The nature of series [2]: Stability test in mouse liver microsomes. The format is in vitro ADME. The method, then:
3. Stability Test in Mouse Liver Microsomes At 37° C., 1 μM of the test compound was incubated with mouse liver microsomes (0.5 mg/mL) supplemented with NADPH regeneration system for 5, 10, 20, 30 and 60 minutes, and then LC-MS/MS method was used to detect the concentration of the test compound in the generated sample. The half-life (T1/2) and inherent clearance rate (CLint(mic)) of the compound in mouse liver microsome solution were obtained by calculating at the corresponding time points and the remaining percentage of the compound.
In general terms: Microsomes from liver hold many membrane-bound enzymes, among them those of drug oxidation.

A short description of series [3]: Stability test in human liver microsomes. Format: in vitro ADME. The procedure: 7. Stability Test in Human Liver Microsomes At 37° C., 1 μM of the test compound was incubated with human liver microsomes (0.5 mg/mL) supplemented with NADPH regeneration system for 5, 10, 20, 30 and 60 minutes, and then LC-MS/MS method was used to detect the concentration of the test compound in the generated sample. The half-life (T1/2) and inherent clearance rate (CLint(mic)) of the compound in human liver microsome solution were obtained by calculating at the corresponding time points and the remaining percentage of the compound.

Series [4] has as its target T2, CYP2D6 (Homo sapiens, UniProt P10635).
T2 construct: pre-incubated with the human liver microsome solutions containing 5 enzyme mixed substrates; from tissue; host or cells: human liver microsomes
Description: Cytochrome P450 isoenzyme inhibition test, human liver microsomes: CYP2D6. The following applies: human liver microsomes 0.1 mg/mL; read-out: IC50, inhibitory activity on CYP2D6. Format: in vitro ADME. The method, then:
9. Cytochrome P450 Isoenzyme Inhibition Test Experimental objective: The inhibitory effect of the test compound on the activity of human liver microsomal cytochrome P450 isoenzyme (CYP1A2, CYP2C19, CYP2D6 and CYP3A4) was determined. Experimental operation: The test compound at an incubation concentration of 0, 0.03, 0.1, 0.3, 1, 3, 10, 30 and 100 μM was pre-incubated with the human liver microsome solutions containing 5 enzyme mixed substrates (liver microsome concentration: 0.1 mg/mL) in a water bath at 37° C. for 10 min, respectively, and then a coenzyme factor (NADPH) was added to start the reaction. After incubation in a water bath at 37° C. for 10 min, the reaction was terminated by adding glacial acetonitrile solution containing an internal standard, shaken for 1 min, centrifuged at 4° C. and 10,000 rpm for 10 min, and the supernatant was taken for LC/MS/MS analysis. The amount of metabolites produced by each CYP enzyme substrate was detected. The activity of each CYP isoenzyme was reflected by the production rate of each metabolite. […]

Read-outs that look alike come from different tables or passages of the source.

T1 sequence (P43220 24-463): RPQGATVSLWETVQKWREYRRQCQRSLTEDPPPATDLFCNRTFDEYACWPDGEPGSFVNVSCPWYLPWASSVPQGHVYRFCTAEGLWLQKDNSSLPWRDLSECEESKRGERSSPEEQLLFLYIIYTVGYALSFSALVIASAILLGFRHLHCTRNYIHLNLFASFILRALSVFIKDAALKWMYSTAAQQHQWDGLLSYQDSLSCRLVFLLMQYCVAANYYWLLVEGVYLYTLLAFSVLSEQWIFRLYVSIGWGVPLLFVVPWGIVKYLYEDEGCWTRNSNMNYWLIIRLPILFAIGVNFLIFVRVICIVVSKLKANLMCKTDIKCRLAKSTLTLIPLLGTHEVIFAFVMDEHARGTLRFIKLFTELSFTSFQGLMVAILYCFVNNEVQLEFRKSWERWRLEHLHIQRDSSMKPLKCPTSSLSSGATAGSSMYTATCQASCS
T2 sequence (P10635 whole entry): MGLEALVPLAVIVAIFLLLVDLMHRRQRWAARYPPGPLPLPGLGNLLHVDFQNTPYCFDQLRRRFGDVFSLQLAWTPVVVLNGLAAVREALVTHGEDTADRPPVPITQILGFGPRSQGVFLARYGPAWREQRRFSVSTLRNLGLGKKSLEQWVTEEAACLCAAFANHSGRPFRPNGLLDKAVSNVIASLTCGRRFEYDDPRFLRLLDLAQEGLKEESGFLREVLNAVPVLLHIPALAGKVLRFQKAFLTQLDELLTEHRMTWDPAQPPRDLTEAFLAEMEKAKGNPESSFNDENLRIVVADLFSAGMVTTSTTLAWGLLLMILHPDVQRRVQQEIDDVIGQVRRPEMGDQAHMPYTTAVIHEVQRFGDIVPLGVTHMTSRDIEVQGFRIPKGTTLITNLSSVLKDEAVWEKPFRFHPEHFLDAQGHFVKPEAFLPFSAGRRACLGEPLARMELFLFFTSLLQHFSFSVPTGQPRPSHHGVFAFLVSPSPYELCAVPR

Turning to `N#Cc1ccc(COc2cccc(-c3ccc(Cc4nc5sc(C(=O)O)cc5n4C[C@@H]4CCO4)c(F)c3)n2)c(F)c1` [Compound 6, (S)-2-(4-(6-((4-cyano-2-fluorobenzyl)oxy)pyridin-2-yl)-2-fluorobenzyl)-1-(oxetan-2-ylmethyl)-1H-thieno[2,3-d]imidazole-5-carboxylic acid], the EC50 in series [1] (6 hours incubation, class symbols, read-out: EC50) was less than 10 nM; in series [1] (bound stated, read-out: EC50 value) it was less than 10 nM. Also, the “T1/2 ratio of compound 6 to compound DZ-6” value in series [2] (mouse liver microsomes) is “greater than 2”; in series [3] (human liver microsomes test (section 7)) it was “greater than 3”. Also, the half-life at 1 μM in series [2] (mouse liver microsomes 0.5 mg/mL, 1 μM compound, NADPH, 37° C.) was determined as 4.93 h; in series [3] (human liver microsomes 0.5 mg/mL, 1 μM compound, NADPH, 37° C.) it was 9.23 h. Besides, the microsomal CLint at 1 μM in series [2] (mouse liver microsomes 0.5 mg/mL, 1 μM compound, NADPH, 37° C., read-out: CLint(mic)) is 4.69 µL/min/mg; in series [3] (human liver microsomes 0.5 mg/mL, 1 μM compound, NADPH, 37° C., read-out: CLint(mic)), 2.5 µL/min/mg. Besides, the IC50 in series [4] is more than 50000 nM.

A word on the EC50: it is the concentration that produces a half-maximal response. One may read the half-life as how long it takes for the measured level to halve. A higher half-life goes with slow loss. Broadly, the IC50 is the concentration that inhibits the measured activity by half.
